Laboratory results as given in patent US20250327027A1, “METHODS TO GENERATE ENHANCED TUMOR INFILTRATING LYMPHOCYTES THROUGH MICROFLUIDIC DELIVERY” (STEMCELL TECHNOLOGIES CANADA INC., priority 2021, published 2025).
Values joined by “and” are separate entries in the source; they are usually repeats but may differ in a detail not shown here. Equal values may be shown once.

What was measured:
Format in all cases: cell-based
melanoma TILs = test: Comparison of microfluidic chips and anti-CD3 antibody clones used in REP (mbIL-2/mbIL-12 expression); settings: anti-CD3 clone used in REP culture; 4 hours post squeeze
Excerpt: As described herein, TILs are often expanded to increase their number prior to their use in adoptive transfer studies Such expansion phase can involve the use of anti-CD3 antibodies to activate and induce the TILs to proliferate. Whether the specific anti-CD3 antibody clone used in the expansion phase was next assessed. Briefly, melanoma TILs were collected from REP cultures that contained different anti-CD3 clones (OKT3, SK7, HIT3a, or UCHT1). Following cell harvest, the post-REP TILs were resuspended at 40 million live cells/mL cell density as 2× concentration. The cells were mixed with equal volume of 2× mRNA solution and squeezed through various chip types (10-3.5-70 SF, 10-4-70 ST) and pressure (30 psi) at room temperature. Final concentration of cells was 20 million live cells/mL. Final mRNA concentration for squeeze was […] for each of mbIL-2 and mbIL-12 mRNA. Following the squeeze processing, cells were quenched in CTS OpTmizer media and spun immediately. […] The squeezed TILs were assessed at 4 hours post squeeze by flow cytometry for viability, cell composition, and surface levels of mbIL-2 and mbIL-12.

TILs = test: Effect of anti-CD3 antibody on TIL expansion from melanoma tumor fragments (NucleoCounter NC-200); settings: for Cell Count on Day 13 / Viability on Day 13: 6,000 IU/mL recombinant IL-2, replicate wells
Protocol: Further to the data provided in Example 22, the effect of anti-CD3 antibody on TIL expansion was further assessed. Briefly, freshly resected melanoma tumor was rinsed in 1× Hank's Balanced Salt Solution (HBSS) with 10 μg/mL gentamicin and dissected into 8-27 mm^3 fragments using a forceps and scalpel. […] Five tumor fragments, 8-27 mm^3 in size, per well were added to the G-Rex6M plate. The G-Rex6M plate was then placed in a 37° C., 5% CO2 incubator for 4 days.
On day 4, the G-Rex6M plate was removed from the incubator. […] The G-Rex6M plate was returned to the 37° C., 5% CO2 incubator for an additional 9 days.
On day 13, the TILs were harvested and transferred to a 50 mL conical tube. The number and viability of the TILs was assessed using a NucleoCounter NC-200.

lung TILs = test: Comparison of anti-CD3 antibody concentration in pre-REP (mbIL-2/mbIL-12 and CD62L expression); settings: 6 or 30 ng/mL anti-CD3 antibody (OKT3 clone) during pre-REP
Protocol: As described herein, in some aspects, prior to modifying the TILs, the TILs can undergo a first expansion phase (pre-REP) and a second expansion phase (REP). Whether the concentration of the anti-CD3 antibody during the first expansion phase has an effect in producing the modified TILs described herein, the following methods were used. Briefly, lung TILs underwent a pre-REP process in the absence or presence of 6 or 30 ng/mL anti-CD3 antibody (OKT3 clone). Then, the TILs were collected and further expanded in a REP process. Afterwards, the cells were resuspended at 40 million live cells/mL cell density as 2× concentration. The cells were mixed with equal volume of 2× mRNA solution and squeezed through 10-4-70 ST at 60 psi at room temperature. Final concentration of cells was 20 million live cells/mL. Final mRNA concentration for squeeze was […] for each of mbIL-2 and mbIL-12 mRNA. Following squeezing, cells were quenched in CTS OpTmizer media and spun immediately. […] The squeezed TILs were assessed at 4, 24, and 48 hours post squeeze by flow cytometry for viability, cell composition, surface levels of mbIL-2 and mbIL-12.

**Q.** “OKT3: anti-CD3 antibody clone used in TIL expansion” was tested. Which “mbIL-2 and mbIL-12 expression (percentage of total cells and MFI)” value (melanoma TILs) did it give?
**A.** Its value is “higher expression”.

**Q.** And the “Cell Count on Day 13” value (TILs; 6 ng/mL OKT3)?
**A.** The value was 2.35 × 10^8 and 2.43 × 10^8.

**Q.** What about the “Viability on Day 13” value (TILs; 6 ng/mL OKT3) of the same substance?
**A.** The value was 90.7% and 91.1%.

**Q.** And the “Cell Count on Day 13” value (TILs; 20 ng/mL OKT3)?
**A.** The value was 2.00 × 10^8 and 2.17 × 10^8.

**Q.** What about the “Viability on Day 13” value (TILs; 20 ng/mL OKT3) of the same substance?
**A.** Its value is 90.5% and 91.6%.

**Q.** What about the TIL expansion (TILs; 6 or 30 ng/mL of OKT3, day 13, compared to culture without OKT3) of the same substance?
**A.** The TIL expansion was “greater TIL expansion”.

**Q.** And the “impact on translation kinetics of mbIL-2 and mbIL-12 expression” value (lung TILs)?
**A.** Its value is “minimal impact”.
